For 5 cell lines, relative viability results are on record in the supplement of paper PMC10307832.

What all share (experiment): relative viability (nuclei count vs DMSO), 5 days (fraction); higher = more cells survive
Compound in the assay “CX-5461 + OSI-027”: Cc1cnc(CNC(=O)c2c(=O)c3ccc(N4CCCN(C)CC4)nc3n3c2sc2ccccc23)cn1 [CX-5461] + COc1cccc2cc(-c3nc([C@H]4CC[C@H](C(=O)O)CC4)n4ncnc(N)c34)[nH]c12 [OSI-027] (partner 0.5 µM)
Put shortly:
(§1)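 Relative viability equals treated-well nuclei counts divided by vehicle-well nuclei counts. Counts came from 4× images of lung cancer cell lines grown in 1536-well plates for 5 days after pin-tool dosing on the day after seeding. Dosing used one drug alone or a fixed anchor-drug dose plus five library-drug doses (not always all listed) in √10 steps, and values are medians of duplicate plates.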

Compound in the assay “IMD-0354 + Alpelisib”: O=C(Nc1cc(C(F)(F)F)cc(C(F)(F)F)c1)c1cc(Cl)ccc1O [IMD-0354] + Cc1nc(NC(=O)N2CCC[C@H]2C(N)=O)sc1-c1ccnc(C(C)(C)C(F)(F)F)c1 [Alpelisib] (partner 2 µM)
Put shortly: as §1

Compound in the assay “CX-5461 + Tozasertib”: Cc1cnc(CNC(=O)c2c(=O)c3ccc(N4CCCN(C)CC4)nc3n3c2sc2ccccc23)cn1 [CX-5461] + Cc1cc(Nc2cc(N3CCN(C)CC3)nc(Sc3ccc(NC(=O)C4CC4)cc3)n2)n[nH]1 [Tozasertib] (partner 0.1 µM)
An outline of the steps:
as §1

Compound in the assay “CX-5461 + AZD7762”: Cc1cnc(CNC(=O)c2c(=O)c3ccc(N4CCCN(C)CC4)nc3n3c2sc2ccccc23)cn1 [CX-5461] + NC(=O)Nc1cc(-c2cccc(F)c2)sc1C(=O)N[C@H]1CCCNC1 [AZD7762] (partner 0.2 µM)
Put shortly:
as §1

On to NCI-H322M, for which the relative viability came out at 0.534 with CX-5461 + OSI-027 (first compound 0.01 µM); 0.552 in the assay with CX-5461 + OSI-027 (first compound 0.03162 µM); 0.578 with CX-5461 + OSI-027 (first compound 0.1 µM); 0.389 in the assay with CX-5461 + OSI-027 (first compound 0.3162 µM); 0.393 in the assay with CX-5461 + OSI-027 (first compound 1 µM); 0.717 with IMD-0354 + Alpelisib (first compound 0.04 µM). Further, the relative viability with IMD-0354 + Alpelisib (first compound 0.1265 µM) worked out at 0.607; in the assay with IMD-0354 + Alpelisib (first compound 0.4 µM), 0.695; with IMD-0354 + Alpelisib (first compound 1.265 µM), 0.834; with IMD-0354 + Alpelisib (first compound 4 µM), 0.475; in the assay with CX-5461 + Tozasertib (first compound 0.01 µM), 0.441; with CX-5461 + Tozasertib (first compound 0.03162 µM), 0.508. The relative viability with CX-5461 + Tozasertib (first compound 0.1 µM) was found to be 0.49; with CX-5461 + Tozasertib (first compound 0.3162 µM), 0.503; in the assay with CX-5461 + Tozasertib (first compound 1 µM) it was 0.443; in the assay with CX-5461 + AZD7762 (first compound 0.01 µM), 0.531; with CX-5461 + AZD7762 (first compound 0.03162 µM), 0.517; in the assay with CX-5461 + AZD7762 (first compound 0.1 µM), 0.526. The relative viability in the assay with CX-5461 + AZD7762 (first compound 0.3162 µM) turned out to be 0.523; with CX-5461 + AZD7762 (first compound 1 µM), 0.509.
Turning to NCI-H358, the relative viability with CX-5461 + OSI-027 (first compound 0.01 µM) turned out to be 0.621; in the assay with CX-5461 + OSI-027 (first compound 0.03162 µM) it was 0.939; in the assay with CX-5461 + OSI-027 (first compound 0.1 µM), 0.69; with CX-5461 + OSI-027 (first compound 0.3162 µM) it was 0.592; with CX-5461 + OSI-027 (first compound 1 µM) it was 0.194; with IMD-0354 + Alpelisib (first compound 0.04 µM) it was 0.944. Moreover, the relative viability with IMD-0354 + Alpelisib (first compound 0.1265 µM) came out at 0.746; with IMD-0354 + Alpelisib (first compound 0.4 µM), 0.429; with IMD-0354 + Alpelisib (first compound 1.265 µM), 0.223; with IMD-0354 + Alpelisib (first compound 4 µM), 0.306; with CX-5461 + Tozasertib (first compound 0.01 µM), 0.108; in the assay with CX-5461 + Tozasertib (first compound 0.03162 µM), 0.0952. For the same cell line, the relative viability with CX-5461 + Tozasertib (first compound 0.1 µM) turned out to be 0.117; with CX-5461 + Tozasertib (first compound 0.3162 µM), 0.103; with CX-5461 + Tozasertib (first compound 1 µM), 0.0892; with CX-5461 + AZD7762 (first compound 0.01 µM) it was 0.546; in the assay with CX-5461 + AZD7762 (first compound 0.03162 µM), 0.593; with CX-5461 + AZD7762 (first compound 0.1 µM), 0.372. The relative viability is 0.474 with CX-5461 + AZD7762 (first compound 0.3162 µM) and 0.363 in the assay with CX-5461 + AZD7762 (first compound 1 µM).
Turning to NCI-H1793, the relative viability with CX-5461 + OSI-027 (first compound 0.01 µM) stood at 0.296; in the assay with CX-5461 + OSI-027 (first compound 0.03162 µM), 0.289; with CX-5461 + OSI-027 (first compound 0.1 µM) it was 0.318; in the assay with CX-5461 + OSI-027 (first compound 1 µM), 0.198; with IMD-0354 + Alpelisib (first compound 0.04 µM), 0.686; with IMD-0354 + Alpelisib (first compound 0.1265 µM), 0.64. Also, the relative viability with IMD-0354 + Alpelisib (first compound 0.4 µM) turned out to be 0.34; with IMD-0354 + Alpelisib (first compound 1.265 µM), 0.369; with IMD-0354 + Alpelisib (first compound 4 µM) it was 0.226; with CX-5461 + Tozasertib (first compound 0.01 µM), 0.281; with CX-5461 + Tozasertib (first compound 0.03162 µM), 0.332; with CX-5461 + Tozasertib (first compound 0.1 µM), 0.426. The relative viability is 0.315 with CX-5461 + Tozasertib (first compound 1 µM); 0.61 with CX-5461 + AZD7762 (first compound 0.01 µM); 0.44 with CX-5461 + AZD7762 (first compound 0.03162 µM); 0.313 in the assay with CX-5461 + AZD7762 (first compound 0.1 µM); 0.391 with CX-5461 + AZD7762 (first compound 0.3162 µM); 0.168 with CX-5461 + AZD7762 (first compound 1 µM).
For NCI-H838, the relative viability in the assay with CX-5461 + OSI-027 (first compound 0.01 µM) is 0.413; with CX-5461 + OSI-027 (first compound 0.03162 µM), 0.384; with CX-5461 + OSI-027 (first compound 0.1 µM), 0.404; with CX-5461 + OSI-027 (first compound 1 µM), 0.272; with IMD-0354 + Alpelisib (first compound 0.04 µM) it was 1.19; with IMD-0354 + Alpelisib (first compound 0.1265 µM), 1.06. The relative viability with IMD-0354 + Alpelisib (first compound 0.4 µM) is 0.445; in the assay with IMD-0354 + Alpelisib (first compound 1.265 µM) it was 0.615; with IMD-0354 + Alpelisib (first compound 4 µM), 0.331; with CX-5461 + Tozasertib (first compound 0.01 µM), 0.249; in the assay with CX-5461 + Tozasertib (first compound 0.03162 µM) it was 0.281; in the assay with CX-5461 + Tozasertib (first compound 0.1 µM) it was 0.271. Further, the relative viability is 0.273 with CX-5461 + Tozasertib (first compound 1 µM); 0.971 with CX-5461 + AZD7762 (first compound 0.01 µM); 0.941 in the assay with CX-5461 + AZD7762 (first compound 0.03162 µM); 1.01 in the assay with CX-5461 + AZD7762 (first compound 0.1 µM); 0.698 in the assay with CX-5461 + AZD7762 (first compound 0.3162 µM); 0.696 in the assay with CX-5461 + AZD7762 (first compound 1 µM).
Take CAL-12T: the relative viability with CX-5461 + OSI-027 (first compound 0.01 µM) came to 0.587; in the assay with CX-5461 + OSI-027 (first compound 0.03162 µM), 0.693; with CX-5461 + OSI-027 (first compound 0.1 µM) it was 0.389; with CX-5461 + OSI-027 (first compound 0.3162 µM) it was 0.679; with CX-5461 + OSI-027 (first compound 1 µM), 0.347; with IMD-0354 + Alpelisib (first compound 0.04 µM), 1.49. Further, the relative viability with IMD-0354 + Alpelisib (first compound 0.1265 µM) was determined as 1.31; in the assay with IMD-0354 + Alpelisib (first compound 0.4 µM), 0.596; in the assay with IMD-0354 + Alpelisib (first compound 1.265 µM) it was 0.267; in the assay with IMD-0354 + Alpelisib (first compound 4 µM) it was 0.173; with CX-5461 + Tozasertib (first compound 0.01 µM), 0.361; with CX-5461 + Tozasertib (first compound 0.03162 µM), 0.353. For the same cell line, the relative viability with CX-5461 + Tozasertib (first compound 0.1 µM) was 0.222; with CX-5461 + Tozasertib (first compound 0.3162 µM), 0.272; in the assay with CX-5461 + Tozasertib (first compound 1 µM), 0.174; in the assay with CX-5461 + AZD7762 (first compound 0.01 µM), 0.715; with CX-5461 + AZD7762 (first compound 0.03162 µM), 0.658; with CX-5461 + AZD7762 (first compound 0.1 µM) it was 0.601. Moreover, the relative viability was found to be 0.698 in the assay with CX-5461 + AZD7762 (first compound 0.3162 µM) and 0.449 with CX-5461 + AZD7762 (first compound 1 µM).
